Where two headings read alike, the source gives them in different places. Positions of bridges follow the written chain, without caps; N, C: chain ends. Residues, ends and D or L forms follow the SMILES beside them. No end group written: not given here.
Tests used:
HKx31 (H3N2) = type: in vivo, mice; parameters: key to PMN activity score / Viral titre activity score / BAL IL-6 activity score: 0: inactive; 1: less active than the peptide of SEQ ID NO:38; 2: comparable or more active than the peptide of SEQ ID NO:38; conditions: for IL-6 levels in the BAL fluid / viral titres: 10 mg/kg single dose
Chung rats = assay: In vivo model of neuropathic pain (Chung model, Example 4); parameters: species or system rat; conditions: oral, subcutaneous and/or intramuscular administration
Excerpt: This study was undertaken to assess the analgesic effect of the peptides described herein on neuropathic pain in vivo using a nerve constriction model in Chung rats. Briefly, adult male Sprague-Dawley rats, 8-9 weeks old, weighing 220-250 g at the time of surgery, were purchased from Charles River UK Ltd.
The animals were housed in groups of 4 in an air-conditioned room on a 12-hour light/dark cycle. Food and water were available ad libitum. They were allowed to acclimatise to the experimental environment for three days by leaving them on a raised metal mesh for at least 40 min. The baseline paw withdrawal threshold (PWT) was examined using a series of graduated von Frey hairs for 3 consecutive days before surgery and re-assessed on the 6th to 8th day after surgery and on the 12th to 14th day after surgery before drug dosing.
Each rat was anaesthetized with 5% isoflurane mixed with oxygen (2 L per min) followed by an intramuscular (i.m.) injection of ketamine 90 mg/kg plus xylazine 10 mg/kg. The back was shaved and sterilized with povidone-iodine. The animal was placed in a prone position and a para-medial incision was made on the skin covering the L4-6 level. The L5 spinal nerve was carefully isolated and tightly ligated with 6/0 silk suture. The wound was then closed in layers after a complete hemostasis. A single dose of antibiotics (Amoxipen, 15 mg/rat, i.p.) was routinely given for prevention of infection after surgery. The animals were placed in a temperature-controlled recovery chamber until fully awake before being returned to their home cages.
The vehicle (1% DMSO in PBS) or peptide was administrated intramuscularly (i.m.) into the leg of the side contralateral to the site of injury. Dosing was carried out by a second experimenter. […]
Each group had 8 animals. […] The lowest amount of force required to induce reliable responses (positive in 3 out of 5 trials) was recorded as the value of PWT.
The drug test was carried out on the 12th to 14th day after surgery. PWT were assessed before, 1, 2 and 4 hours following drug or vehicle administration. […]

A549 cells = assay: A549 proliferation + stress assay (restoration of viability of Taxol-treated cells, CellTiter-Glo); type: cell-based, human; conditions: for Estimated Activity in A549 proliferation + stress assay: 350 μM Taxol, 16 hours, peptide 1-100 μM; for restoration of A549 viability: Taxol-treated A549 cells
Procedure: An assay was developed that involves stressing cells with a dose of the chemotherapeutic agent, Taxol, that causes a 50% inhibition of cell viability when compared to untreated cells. Peptides were then added to the cell cultures at increasing concentrations to assess their ability to restore the viability of the Taxol-treated cells.
Briefly, A549 cells were cultured in opaque-walled multiwell plates with 50000 A549 cells/well in culture medium (DMEM medium ref 11960-044 Thermoscientific, +10% FBS ref 10270-106 Gibco, Thermoscientific, +1% Na pyruvate ref S8636-100 ML, Sigma, +1%, Glutamax ref35050061, Thermoscientific, +1% Penicillin-Streptomycin, ref 11074440001, Sigma) 100 μl per well for 96-well plates. Control wells containing medium without cells were used to obtain a value for background luminescence. Cells were incubated at 37° C. in 5% CO2 overnight.
100 μL of medium+DMSO+peptides or medium+Taxol+peptides (at the different concentrations) were added to each well and incubated for 16 hours at 37° C. 5% CO2.
Cell morphology, viability and confluency were assessed by phase contrast microscopy. The CellTiter-Glo® Luminescent Cell Viability Assay (G7571, Promega—a homogeneous method to determine the number of viable cells in culture based on quantitation of the ATP present) was then used to quantify the number of metabolically active cells, according to the manufacturer's instructions. 100 μl volume of CellTiter-Glo® Reagent was added to the 100 μL volume of cell culture medium present in each well, Contents were mixed for 2 minutes on an orbital shaker to induce cell lysis and after incubating the plates at room temperature for 10 minutes to stabilize luminescent signal luminescence was recorded with an integration time of 0.5 seconds using a CLARIOstar multi well luminometer (BMG Labtech)

[1] = target: recombinant LanCL1 (rLanCL1) (Homo sapiens, UniProt O43813); assay: biochemical; type: binding
Procedure: Dry pellets of LANCL1 previously photolabelled with photoprobes in the presence of different peptides or PBS/DMSO vehicle were resuspended in 30 μL SDS loading buffer (Bio Rad's XT Sample Buffer containing 2.5% v/v 2-mercaptoethanol) and heated (60° C., 30 min). Proteins were resolved using SDS-PAGE (4-15% Criterion™ TGX Stain-Free™ Protein Gel, Bio Rad) and analyzed by in-gel fluorescence scanning using a ChemiDoc™ MP Imaging System (Bio Rad) with a green LED light as an excitation source and a BP600/20 nm emission filter. After in-gel fluorescence scanning, gels were stained with Coomassie blue to ensure the same amount of protein sample was loaded in each lane and imaged with the ChemiDoc™ MP Imaging System. Photoincorporation of each photoprobe in LANCL1 was quantitatively assessed by measuring the fluorescent intensity of the corresponding gel band using Image lab software (Bio Rad) and normalizing this value against the intensity value of LANCL1 gel band stained with Coomassie blue to control for loading differences.
(SEQ ID NO:22) from recombinant LanCL1 (rLanCL1).

Chain of recombinant LanCL1 (rLanCL1) (O43813 whole entry, species assumed): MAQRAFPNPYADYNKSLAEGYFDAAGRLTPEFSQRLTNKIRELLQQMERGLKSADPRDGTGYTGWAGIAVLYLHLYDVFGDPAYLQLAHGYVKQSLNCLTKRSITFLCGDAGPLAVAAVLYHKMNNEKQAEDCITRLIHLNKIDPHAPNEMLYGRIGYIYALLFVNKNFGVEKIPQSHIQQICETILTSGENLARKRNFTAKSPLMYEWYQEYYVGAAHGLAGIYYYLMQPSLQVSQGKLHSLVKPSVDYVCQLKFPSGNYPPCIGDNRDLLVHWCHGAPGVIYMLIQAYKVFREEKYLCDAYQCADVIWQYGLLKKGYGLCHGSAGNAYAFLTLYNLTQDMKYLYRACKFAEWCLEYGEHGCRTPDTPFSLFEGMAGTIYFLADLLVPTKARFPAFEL

## 2 (CRSVEGSCGF; disulfide 1-8) [compound 2]
HKx31 (H3N2); mouse, in vivo, 10 mg/kg
  PMN activity score: 2
HKx31 (H3N2); single 10 mg/kg dose
  reducing the PMN infiltrate in BAL fluid, compared with the peptide of SEQ ID NO:38: as effective
Chung rats
  neuropathic pain in the Chung model: reduced neuropathic pain

## 9 (RSVEGS) [compound 9]
A549 cells
  Estimated Activity in A549 proliferation + stress assay: STRONG (clear dose-dependent restoration of cell viability from 1-5 μM upwards)
  restoration of A549 viability: restored the Taxol-induced loss of cell viability
HKx31 (H3N2)
  IL-6 levels in the BAL fluid: as effective
HKx31 (H3N2); day 3
  viral titres: effective
HKx31 (H3N2); mouse, in vivo, 10 mg/kg
  BAL IL-6 activity score: 2
  PMN activity score: 2
  Viral titre activity score: 2
HKx31 (H3N2); single 10 mg/kg dose
  reducing the PMN infiltrate in BAL fluid, compared with the peptide of SEQ ID NO:38: as effective

## 10 (SCRSRPVESSC; disulfide 2-11) [compound 10]
A549 cells
  Estimated Activity in A549 proliferation + stress assay: STRONG (clear dose-dependent restoration of cell viability from 1-5 μM upwards)
  restoration of A549 viability: restore A549 viability
Chung rats
  neuropathic pain in the Chung model: reduced neuropathic pain

## 42 (KALPRS) [compound 42]
A549 cells
  Estimated Activity in A549 proliferation + stress assay: STRONG (clear dose-dependent restoration of cell viability from 1-5 μM upwards)
  restoration of A549 viability: partially restore A549 viability
HKx31 (H3N2)
  IL-6 levels in the BAL fluid: as effective
HKx31 (H3N2); day 3
  viral titres: effective
HKx31 (H3N2); mouse, in vivo, 10 mg/kg
  BAL IL-6 activity score: 2
  PMN activity score: 2
  Viral titre activity score: 2
HKx31 (H3N2); single 10 mg/kg dose
  reducing the PMN infiltrate in BAL fluid, compared with the peptide of SEQ ID NO:38: as effective

## 59 (RALNS) [compound 59]
A549 cells
  Estimated Activity in A549 proliferation + stress assay: WEAK-MODERATE
HKx31 (H3N2); mouse, in vivo, 10 mg/kg
  BAL IL-6 activity score: 2
  PMN activity score: 2
  Viral titre activity score: 2

## 60 (RALN) [compound 60]
A549 cells
  Estimated Activity in A549 proliferation + stress assay: WEAK (some or variable restoration of cell viability at 50-100 μM)
HKx31 (H3N2); mouse, in vivo, 10 mg/kg
  BAL IL-6 activity score: 2
  PMN activity score: 2
  Viral titre activity score: 2

## 63 (ALNSS) [compound 63]
A549 cells
  Estimated Activity in A549 proliferation + stress assay: MODERATE (moderate dose-dependent restoration of cell viability at >25 μM)
HKx31 (H3N2); single 10 mg/kg dose, day 3, relative to SEQ ID NO:38
  Viral titre activity score: 0

## CC[C@H](C)[C@H](NC(=O)[C@H](CCCNC(=N)N)NC(=O)[C@H](CC(C)C)NC(=O)[C@@H](N)Cc1ccc(O)cc1)C(=O)N[C@H](C(=O)N[C@@H](CCC(N)=O)C(=O)N[C@H]1CSSC[C@@H](C(=O)NCC(=O)N[C@@H](Cc2ccccc2)C(=O)O)NC(=O)[C@H](CO)NC(=O)CNC(=O)[C@H](CCC(=O)O)NC(=O)[C@H](C(C)C)NC(=O)[C@H](CO)NC(=O)[C@H](CCCNC(=N)N)NC1=O)C(C)C [compound 1] (H-YLRIVQCRSVEGSCGF-OH; disulfide 7-14)
[1]
  EC50: 50 to 100 µM

## CC(C)[C@@H]1NC(=O)[C@H](CO)NC(=O)[C@H](CCCNC(=N)N)NC(=O)[C@@H](N)CSSC[C@@H](C(=O)NCC(=O)O)NC(=O)[C@H](CO)NC(=O)CNC(=O)[C@H](CCC(=O)O)NC1=O [compound 3] (H-CRSVEGSCG-OH; disulfide 1-8; N-terminus and C-terminus assumed)
[1]
  EC50: ~150 µM
Chung rats
  neuropathic pain in the Chung model: reduced neuropathic pain

## CC(C)[C@@H]1NC(=O)[C@@H]2CCCN2C(=O)[C@H](CCCNC(=N)N)NC(=O)[C@H](CO)NC(=O)[C@H](CCCNC(=N)N)NC(=O)[C@@H](N)CSSC[C@@H](C(=O)N[C@@H](CO)C(=O)O)NC(=O)[C@H](CO)NC(=O)[C@H](CO)NC(=O)[C@H](CCC(=O)O)NC1=O [compound 14] (H-CRSRPVESSCS-OH; disulfide 1-10; N-terminus and C-terminus assumed)
[1]
  EC50: ~100 µM
A549 cells
  Estimated Activity in A549 proliferation + stress assay: STRONG (clear dose-dependent restoration of cell viability from 1-5 μM upwards)

## CC[C@H](C)[C@@H]1NC(=O)[C@H](CCCNC(=N)N)NC(=O)[C@@H](N)CSSC[C@@H](C(=O)O)NC(=O)[C@H](CC(N)=O)NC(=O)[C@H](CC(N)=O)NC(=O)[C@H](CC(N)=O)NC(=O)[C@H](Cc2c[nH]cn2)NC(=O)[C@H]([C@@H](C)CC)NC1=O [compound 24] (H-CRIIHNNNC-OH; disulfide 1-9)
[1]
  EC50: 100 to 200 µM

## CC(C)C[C@@H]1NC(=O)[C@H](C)NC(=O)[C@H](CCCNC(=N)N)NC(=O)[C@H](CCC(=O)O)NC(=O)[C@H](CC(C)C)NC(=O)[C@H](CCC(N)=O)NC(=O)[C@H](CCC(=O)O)NC(=O)[C@H](CCC(N)=O)NC(=O)[C@@H](N)CSSC[C@@H](C(=O)O)NC(=O)[C@H](CO)NC(=O)[C@H](CO)NC(=O)[C@H](CC(N)=O)NC1=O [compound 38] (H-CQEQLERALNSSC-OH; disulfide 1-13)
[1]
  EC50: 50 to 100 µM

## CC(C)C[C@@H]1NC(=O)[C@H](C)NC(=O)[C@H](CCCNC(=N)N)NC(=O)[C@@H](N)CSSC[C@@H](C(=O)O)NC(=O)[C@H](CO)NC(=O)[C@H](CO)NC(=O)[C@H](CC(N)=O)NC1=O [compound 40] (H-CRALNSSC-OH; disulfide 1-8)
[1]
  EC50: 50 to 100 µM

## QEQLERALNSS [compound 37]
[1]
  EC50: 100 to 200 µM

## RALNSS [compound 39]
[1]
  EC50: > 200 µM

Source: patent US12492223B2, “Peptide compositions capable of binding lanthionine synthetase C-like protein (LanCl) and uses thereof” (priority 2021, dated 2025)
